Structures can show the parent of a compound that is named as a salt.

One test relates to PRKACA-PRKAR2A interaction (SmBiT-PRKACA / LgBiT-PRKAR2A), protein kinase A. Further details: NanoLuc complementation counter-screen in cell extract, PRKACA with PRKAR2A, loss of luminescence, detects NanoLuc interference. The note with it: 0.5 h, 20 µM; inhibitor.
Regarding `COC(=O)C1=CCCN(C)C1` [UM0053253:04, Arecoline hydrobromide], the “Inh (PKA)” value was -0.2973%.

Take `CN(C)NC(=O)CCC(=O)O` [UM0056235:02, Daminozide]: the “Inh (PKA)” value amounted to 2.677%.

The test is the same for the next values; noted with them: counter-screen for NanoLuc interference, 0.5 h, 20 µM, inhibitor, Inh (PKA).
`O=C(O)Cc1ccccc1Nc1c(Cl)cccc1Cl` [UM0118146:04, Diclofenac Sodium]: the “Inh (PKA)” value was determined as 5.073%.

In the case of `NCC1(CC(=O)O)CCCCC1` [UM0118203:03, Gabapentin], the “Inh (PKA)” value stood at 0.7345%.

Still in this test, the particulars now being: counter-screen for NanoLuc interference; 0.5 h, 20 µM; inhibitor.
As to `Fc1cc(F)c2c(c1)[C@H]1C=CC[C@H]1C(c1cccnc1)N2` (mixture of isomers) [UM0142231:01, Golgicide A], the “Inh (PKA)” value is 20.05%.

Take `CC(=O)N1CCN(c2ccc(OC[C@@H]3CO[C@@](Cn4ccnc4)(c4ccc(Cl)cc4Cl)O3)cc2)CC1` (racemic) [UM0118636:05, Ketoconazole]: the “Inh (PKA)” value was 5.554%.

In the case of `CC1COC2(CCN(c3nc(=O)c4cc(C(F)(F)F)cc([N+](=O)[O-])c4s3)CC2)O1` (racemic) [UM0141871:01, BTZ043 Racemate], the “Inh (PKA)” value amounted to 1.801%.

On to `O[C@@H](CNC[C@H](O)[C@H]1CCc2cc(F)ccc2O1)[C@@H]1CCc2cc(F)ccc2O1` (racemic) [UM0142211:01, Nebivolol], for which the “Inh (PKA)” value turned out to be 3.79%.

For `O=C1NC(=O)C(=Cc2ccc(-c3ccc(F)cc3)o2)S1` (stereo in doubt) [UM0142434:01, CAY10505], the “Inh (PKA)” value came out at 43.9%.

Take `CN(C)Cc1cccc(N/C(=C2\C(=O)Nc3cc(C(=O)N(C)C)ccc32)c2ccccc2)c1` [BIX02189]: the “Inh (PKA)” value is 9.078%.

On to `Oc1ccc(Nc2nc(-c3ccc(Cl)cc3)cs2)cc1` [UM0013692:02, SKI II], for which the “Inh (PKA)” value is 14.65%.

For the compound `O=C(O)c1ccccc1O` [UM0038620:02, Salicylic acid], the “Inh (PKA)” value is 0.4961%.

For `O=C(Oc1cc(S(=O)(=O)c2ccccc2)ccc1[N+](=O)[O-])c1ccc(Cl)cc1` [UM0041523:03, BTB06584], the “Inh (PKA)” value is on record as 10.87%.

Turning to `COc1cc2ncnc(Nc3cccc(Cl)c3)c2cc1OC` [UM0044591:06, AG-1478], the “Inh (PKA)” value came out at 16.45%.

For the compound `COc1ccc2[nH]c([S+]([O-])Cc3ncc(C)c(OC)c3C)nc2c1` (stereo not shown) [UM0048901:05, Omeprazole], the “Inh (PKA)” value was -0.07908%.

`OC[C@@H](O)[C@@H](O)[C@@H](O)CO` [UM0050273:04, Ribitol]: the “Inh (PKA)” value is given as 0.444%.

With `OC[C@@H](O)[C@H](O)[C@@H](O)CO` [UM0050273:05, Xylitol], the “Inh (PKA)” value is reported as -1.935%.

In the case of `Oc1c2ccccc2c2c3c(cccc13)N=N2` [UM0051399:06, SP 600125], the “Inh (PKA)” value worked out at 23.18%.

Consider `Cn1c(=O)c2c(ncn2CC(O)CO)n(C)c1=O` (stereo not shown) [UM0052188:04, Dyphylline], for which the “Inh (PKA)” value was 1.648%.

Consider `CC(C)(C)c1cc(C(=O)/C(C#N)=N/Nc2cccc(Cl)c2)no1` [UM0055456:02, ESI-09], for which the “Inh (PKA)” value is listed as 77.71%.

Consider `O=C(O)CCc1nc(-c2ccccc2)c(-c2ccccc2)o1` [UM0056108:04, Oxaprozin], for which the “Inh (PKA)” value was 7.48%.

Regarding `CCOC(=O)c1ccc(NC2CCCCC2)c(N)c1` [UM0065946:02, Ferrostatin-1 (Fer-1)], the “Inh (PKA)” value is on record as 10.75%.

Turning to `CC(=O)Nc1ccc(NC(=S)NC(=O)c2ccc(C(C)(C)C)cc2)cc1` [UM0075879:02, Tenovin-1], the “Inh (PKA)” value is on record as 12.95%.

As to `CCN(CC)CCOC(=O)C(c1ccccc1)c1ccccc1` [UM0118069:03, Adiphenine HCl], the “Inh (PKA)” value was determined as 2.953%.

On to `CN(C)CCC=C1c2ccccc2CCc2ccccc21` [UM0118081:03, Amitriptyline HCl], for which the “Inh (PKA)” value was determined as 6.05%.

With `COc1ccc(C(Cl)=C(c2ccc(OC)cc2)c2ccc(OC)cc2)cc1` [UM0118083:03, Chlorotrianisene], the “Inh (PKA)” value turned out to be 17.63%.

In the case of `CCCCC(CC)CNC(=N)NC(=N)NCCCCCCNC(=N)NC(=N)NCC(CC)CCCC` (stereo not shown) [UM0118099:03, Alexidine dihydrochloride], the “Inh (PKA)” value is 24.16%.

Take `CN(C)CCCN1c2ccccc2Sc2ccc(Cl)cc21` [UM0118114:03, Chlorpromazine HCl]: the “Inh (PKA)” value is 15.72%.

On to `Cc1oncc1C(=O)Nc1ccc(C(F)(F)F)cc1` [UM0118141:03, Leflunomide], for which the “Inh (PKA)” value was found to be 16.35%.

In the case of `Cn1c(=O)c2[nH]cnc2n(C)c1=O` [UM0118147:03, Aminophylline], the “Inh (PKA)” value amounted to 0.6753%.

As for `C=C(C)[C@@H]1CC[C@]2(C(=O)O)CC[C@]3(C)[C@H](CC[C@@H]4[C@@]5(C)CC[C@H](O)C(C)(C)[C@@H]5CC[C@]43C)[C@@H]12` [UM0118149:03, Betulinic acid], the “Inh (PKA)” value worked out at 14.84%.

As for `C[C@H](CS)C(=O)N1CCC[C@H]1C(=O)O` [UM0118157:03, Captopril], the “Inh (PKA)” value was 5.226%.

For the compound `CCCC(C(=O)OCCN(CC)CC)(c1ccccc1)c1ccccc1` [UM0118177:04, SKF 525A (hydrochloride)], the “Inh (PKA)” value stood at 14.38%.

Consider `OCCN(CCO)c1nc(N2CCCCC2)c2nc(N(CCO)CCO)nc(N3CCCCC3)c2n1` [UM0118197:03, Dipyridamole], for which the “Inh (PKA)” value is reported as 27.31%.

In the case of `CCN(CC)C(=S)SSC(=S)N(CC)CC` [UM0118234:04, Disulfiram], the “Inh (PKA)” value stood at 21.36%.

`CC[N+](C)(C)c1cccc(O)c1` [UM0118243:03, Edrophonium (chloride)]: the “Inh (PKA)” value was -0.559%.

On to `CC(C)C(=O)Nc1ccc([N+](=O)[O-])c(C(F)(F)F)c1` [UM0118278:03, Flutamide], for which the “Inh (PKA)” value was found to be 16.36%.

For the compound `CC[N+](CC)(CC)CCOc1cccc(OCC[N+](CC)(CC)CC)c1OCC[N+](CC)(CC)CC` [UM0118287:03, Gallamine Triethiodide], the “Inh (PKA)” value is listed as 0.3342%.

For the compound `COc1ccc2c(c1)[nH]c1c(C)nccc12` [UM0118303:03, Harmine hydrochloride], the “Inh (PKA)” value worked out at 2.69%.

As to `CN(C)CCCN1c2ccccc2CCc2ccccc21` [UM0118324:03, Imipramine (hydrochloride)], the “Inh (PKA)” value turned out to be 3.952%.

For `COC(=O)Nc1nc2cc(C(=O)c3ccccc3)ccc2[nH]1` [UM0118348:03, Mebendazole], the “Inh (PKA)” value was 8.731%.

For the compound `COc1ccc2[nH]cc(CCNC(C)=O)c2c1` [UM0118349:03, Melatonin], the “Inh (PKA)” value was -1.159%.

On to `COC(=O)Nc1nc2cc(C(=O)c3cccs3)ccc2[nH]1` [UM0118368:03, Nocodazole], for which the “Inh (PKA)” value is recorded as 9.707%.

As for `CNCCC=C1c2ccccc2CCc2ccccc21` [UM0118370:03, Nortriptyline (hydrochloride)], the “Inh (PKA)” value is 4.028%.

On to `C#CCN(C)Cc1ccccc1` [UM0118374:03, Pargyline (hydrochloride)], for which the “Inh (PKA)” value is listed as -0.007894%.

Regarding `C1CCc2nnnn2CC1` [UM0118375:03, Pentylenetetrazole], the “Inh (PKA)” value is listed as -0.7973%.

Turning to `O=c1[nH]c2ccccc2n1C1CCN(CCCC(c2ccc(F)cc2)c2ccc(F)cc2)CC1` [UM0118378:03, Pimozide], the “Inh (PKA)” value amounted to 11.2%.

As to `Cc1ncc(C[n+]2csc(CCO)c2C)c(N)n1` [UM0118406:03, Thiamine HCl (Vitamin B1)], the “Inh (PKA)” value is -1.554%.

As for `Nc1ccc(S(=O)(=O)Nc2ccnn2-c2ccccc2)cc1` [UM0118414:03, Sulfaphenazole], the “Inh (PKA)” value was 2.527%.

Values taken from publication PMC9995496, “A screen for MeCP2-TBL1 interaction inhibitors using a luminescence-based assay” (Scientific Reports, 2023).
